# Experimental data as given in PubChem BioAssay (NCI).
#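 Interpolation was linear, between the two tested concentrations surrounding the appropriate level; five concentrations were tested over 48 hours in 96-well plates. Here, GI50 denotes the concentration required for 50% inhibition of growth. The concentration for full growth arrest is given as TGI.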
# Key:
# Assay in all cases: NCI tumour cell line growth inhibition, 48 h
# [1] = tested on: HCT-116 colon
# [2] = tested on: TK-10 renal
# [3] = tested on: U251 CNS
# [4] = tested on: NCI-H522 lung
# [5] = tested on: HOP-92 NSCLC
# [6] = tested on: DU-145 prostate
# [7] = tested on: MCF7 breast
# [8] = tested on: ACHN renal
# [9] = tested on: SF-268 CNS
# [10] = tested on: MDA-MB-231 breast
# [11] = tested on: NCI-H226 lung
# [12] = tested on: SF-295 CNS
# [13] = tested on: HS 578T breast
# [14] = tested on: MOLT-4 leukemia
# [15] = tested on: BT-549 breast
# [16] = tested on: LOX IMVI melanoma
# [17] = tested on: SK-MEL-2 melanoma
# [18] = tested on: OVCAR-3 ovarian
# [19] = tested on: OVCAR-8 ovarian
# [20] = tested on: A549 NSCLC
# [21] = tested on: SNB-75 CNS
# [22] = tested on: T-47D breast
# [23] = tested on: A498 renal
# [24] = tested on: NCI-H23 lung
# [25] = tested on: RXF 393 renal
# [26] = tested on: HOP-62 NSCLC
# [27] = tested on: KM12 colon
# [28] = tested on: SF-539 CNS
# [29] = tested on: COLO 205 colon
# [30] = tested on: UO-31 renal
# [31] = tested on: MALME-3M melanoma
# [32] = tested on: MDA-MB-435
# [33] = tested on: SN12C renal
# [34] = tested on: IGROV1 ovarian
# [35] = tested on: SNB-19 CNS
# [36] = tested on: NCI/ADR-RES ovarian
# [37] = tested on: SK-MEL-5 melanoma
# [38] = tested on: NCI-H460 lung
# [39] = tested on: HL-60(TB) leukemia
# [40] = tested on: EKVX NSCLC
# [41] = tested on: UACC-257 melanoma
# [42] = tested on: SW-620 colon
# [43] = tested on: PC-3 prostate
# [44] = tested on: RPMI-8226 leukemia
# [45] = tested on: OVCAR-4 ovarian
# [46] = tested on: SK-MEL-28 melanoma
# [47] = tested on: OVCAR-5 ovarian
# [48] = tested on: HCT-15 colon
# [49] = tested on: 786-0 renal
# [50] = tested on: CCRF-CEM leukemia
# [51] = tested on: HT29 colon
# [52] = tested on: SR leukemia
# [53] = tested on: K-562 leukemia
# [54] = tested on: M14 melanoma
# [55] = tested on: SK-OV-3 ovarian
# [56] = tested on: HCC-2998 colon
# [57] = tested on: UACC-62 melanoma
smiles,measurement,setting,value
Cn1ncc(NC(=O)c2nc(-c3c(F)cccc3F)sc2N)c1N1CC[C@@H](N)[C@H](F)CC1,GI50,[1],4.33 µM
same,TGI,[1],60.3 µM
same,GI50,[2],2.81 µM
same,TGI,[2],41.7 µM
same,GI50,[3],8.54 µM
same,TGI,[3],23.9 µM
same,GI50,[4],2.67 µM
same,TGI,[4],14.9 µM
same,GI50,[5],4.12 µM
same,TGI,[5],31.3 µM
same,GI50,[6],5.19 µM
same,TGI,[6],42.6 µM
same,GI50,[7],2.8 µM
same,TGI,[7],13.9 µM
same,GI50,[8],2.67 µM
same,TGI,[8],16.7 µM
same,GI50,[9],3.27 µM
same,TGI,[9],32.6 µM
same,GI50,[10],6.93 µM
same,TGI,[10],31 µM
same,GI50,[11],1.74 µM
same,TGI,[11],27 µM
same,GI50,[12],8.75 µM
same,TGI,[12],24 µM
same,GI50,[13],2.99 µM
same,TGI,[13],14.8 µM
same,GI50,[14],3.54 µM
same,TGI,[14],30.5 µM
same,GI50,[15],2.39 µM
same,TGI,[15],16.5 µM
same,GI50,[16],5.71 µM
same,TGI,[16],21 µM
same,GI50,[17],3.45 µM
same,TGI,[17],13.5 µM
same,GI50,[18],11.1 µM
same,TGI,[18],31.3 µM
same,GI50,[19],8.65 µM
same,TGI,[19],37.1 µM
same,GI50,[20],4.83 µM
same,TGI,[20],25.6 µM
same,GI50,[21],1.06 µM
same,TGI,[21],8.83 µM
same,GI50,[22],3.34 µM
same,TGI,[22],34.2 µM
same,GI50,[23],1.17 µM
same,TGI,[23],7.55 µM
same,GI50,[24],11.4 µM
same,TGI,[24],34.4 µM
same,GI50,[25],2.98 µM
same,TGI,[25],15.3 µM
same,GI50,[26],3.56 µM
same,TGI,[26],22.8 µM
same,GI50,[27],12.4 µM
same,TGI,[27],54.1 µM
same,GI50,[28],3.85 µM
same,TGI,[28],15.3 µM
same,GI50,[29],3.33 µM
same,TGI,[29],16.7 µM
same,GI50,[30],1.24 µM
same,TGI,[30],5.67 µM
same,GI50,[31],5.18 µM
same,TGI,[31],21 µM
same,GI50,[32],3.61 µM
same,TGI,[32],19.4 µM
same,GI50,[33],3.69 µM
same,TGI,[33],43.3 µM
same,GI50,[34],2.88 µM
same,TGI,[34],19.8 µM
same,GI50,[35],26.3 µM
same,TGI,[35],86.5 µM
same,GI50,[36],20.5 µM
same,TGI,[36],> 89.8 µM
same,GI50,[37],4.77 µM
same,TGI,[37],17.8 µM
same,GI50,[38],5.02 µM
same,TGI,[38],21.2 µM
same,GI50,[39],4.22 µM
same,TGI,[39],17.3 µM
same,GI50,[40],2.95 µM
same,TGI,[40],50.7 µM
same,GI50,[41],14.4 µM
same,TGI,[41],30.6 µM
same,GI50,[42],3.65 µM
same,TGI,[42],24.8 µM
same,GI50,[43],3.6 µM
same,TGI,[43],32 µM
same,GI50,[44],2.54 µM
same,TGI,[44],29.3 µM
same,GI50,[45],4.17 µM
same,TGI,[45],44.3 µM
same,GI50,[46],10.4 µM
same,TGI,[46],25.6 µM
same,GI50,[47],16.5 µM
same,TGI,[47],54.6 µM
same,GI50,[48],3.86 µM
same,TGI,[48],28.7 µM
same,GI50,[49],3.75 µM
same,TGI,[49],20.8 µM
same,GI50,[50],4.55 µM
same,TGI,[50],> 100 µM
same,GI50,[51],5.58 µM
same,TGI,[51],27.5 µM
same,GI50,[52],2.37 µM
same,TGI,[52],25 µM
same,GI50,[53],3.45 µM
same,TGI,[53],28 µM
same,GI50,[54],3.03 µM
same,TGI,[54],18.5 µM
same,GI50,[55],1.42 µM
same,TGI,[55],6 µM
same,GI50,[56],14.2 µM
same,TGI,[56],35.2 µM
same,GI50,[57],5.33 µM
same,TGI,[57],25.2 µM
